The record followed here is PMC11784839, “Monoaminergic neurotransmitters are bimodal effectors of tau aggregation” (Science Advances, 2025).

For the assay, the target named is tau (Homo sapiens, UniProt P10636). The assay is described as follows: MCE Phenols Library screening, tau biosensor cell seeding assay (AvZ). The assay is classed as cell-based. The note with it: for AvZ (average z score of seeding, SDs from the mean level of seeding): 10 μM phenol in cell cultures, AD brain homogenate preincubated 16 hours, two biological replicates, positive = catalyzes seeding, negative = inhibits; for Z repl 1 / Z Repl 2: Z score; for Z repl 1 / raw data 1: replicate 1; for Z Repl 2 / raw data 2: replicate 2.

The mark [1] stands for this setting: average Z score of the two replicates, tau seeding.
The mark [2] stands for this setting: average Z score of the two replicates, MCE Phenols Library screen.
[3] abbreviates: average puncta of the two replicates.
The mark [4] stands for this setting: average Z score of two replicates, Phenols Library screen.

Structures are written as SMILES.

tau, sequence (P10636 623-695 limits assumed): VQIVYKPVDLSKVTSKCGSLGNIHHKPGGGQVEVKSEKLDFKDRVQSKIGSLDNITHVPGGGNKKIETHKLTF

As for `COc1cc(C)ccc1O` [Creosol], the “AvZ (average z score of seeding, SDs from the mean level of seeding)” value (“AvZ” for short) turned out to be 0.768; the “Z repl 1” value is 0.313; the “Z Repl 2” value is listed as 1.224. Also, the av puncta (average of raw data 1 and 2) amounted to 27969.9. Where the note is “puncta”, the “raw data 1” value is given as 30100.9 and the “raw data 2” value came to 25838.9.

`O=C(/C=C/c1ccc(O)c(O)c1)O[C@H]1[C@H](O)C[C@](O)(C(=O)O)C[C@H]1O` [Cryptochlorogenic acid]: the “Z repl 1” value came to 0.935 and the “Z Repl 2” value is listed as 0.427. Further, the “av Z” value under setting [1] was 0.681. This compound returned an av puncta (average of raw data 1 and 2) of 27449.5. For the same compound, where the note is “puncta”, the “raw data 1” value was 37574 and the “raw data 2” value is on record as 17325.

As for `COc1cccc(OC)c1C(=O)OCc1cc(O)ccc1O[C@@H]1O[C@H](CO)[C@@H](O)[C@H](O)[C@H]1O` [Curculigoside], the “Z repl 1” value is -0.772 and the “Z Repl 2” value was 0.136. Further, the “av Z” value under setting [2] is given as -0.318. Under setting [3], this compound showed an av puncta of 15649.1. For the same compound, for the setting “raw puncta”, the “raw data 1” value is given as 17078.1 and the “raw data 2” value was 14220.1.

Regarding `OC[C@H]1O[C@@H](Oc2cc3c(O)cc(O)cc3[o+]c2-c2ccc(O)c(O)c2)[C@H](O[C@@H]2OC[C@@H](O)[C@H](O)[C@H]2O)[C@@H](O)[C@@H]1O.[Cl-]` [Cyanidin 3-sambubioside (chloride)], the “Z repl 1” value is recorded as -0.124 and the “Z Repl 2” value was -1.008. The “av Z” value under setting [2] is listed as -0.566. For the same compound, the av puncta under setting [3] is reported as 13432.8. Also, under “puncta”, the “raw data 1” value came out at 24866.3 and the “raw data 2” value is reported as 1999.21.

In the case of `Oc1cc(O)c2cc(O)c(-c3ccc(O)c(O)c3)[o+]c2c1.[Cl-]` [Cyanidin (Chloride)], the “Z repl 1” value is recorded as -1.789 and the “Z Repl 2” value is on record as -1.05. For the same compound, the “av Z” value under setting [2] is -1.419. In addition, under “average of raw data 1 and 2”, the av puncta came out at 3213.88. Also, where the note is “puncta”, the “raw data 1” value was found to be 4876.54 and the “raw data 2” value worked out at 1551.23.

`OC[C@H]1O[C@@H](Oc2cc3c(O)cc(O)cc3[o+]c2-c2ccc(O)c(O)c2)[C@H](O)[C@@H](O)[C@H]1O.[Cl-]` [Cyanidin-3-O-galactoside (chloride)]: the “Z repl 1” value is recorded as -1.814 and the “Z Repl 2” value was -0.88. Moreover, the “av Z” value under setting [2] is -1.347. Under “average of raw data 1 and 2”, the av puncta came out at 3972.36. For the same compound, for the setting “puncta”, the “raw data 1” value was 4573.89 and the “raw data 2” value is listed as 3370.84.

Under setting [3], `O=c1c(-c2ccc(O)cc2)coc2cc(O)ccc12` [Daidzein] showed an av puncta of 16957.6. Further, where the note is “raw puncta”, the “raw data 1” value amounted to 27554 and the “raw data 2” value worked out at 6361.09.

With `O=C([O-])C(O)Cc1ccc(O)c(O)c1.[Na+]` (stereo not drawn) [Danshensu (sodium salt)], the “AvZ” value is recorded as -0.495; the “Z repl 1” value was -0.172; the “Z Repl 2” value is given as -0.817. Under setting [3], this compound gave an av puncta of 14160.8. In addition, where the note is “puncta”, the “raw data 1” value was 24282 and the “raw data 2” value was 4039.49.

With `O=C(O)[C@H](O)Cc1ccc(O)c(O)c1` [Danshensu], the “AvZ” value is listed as -0.723; the “Z repl 1” value is listed as -0.37; the “Z Repl 2” value is given as -1.076. This compound displayed an av puncta under setting [3] of 11586.7. Where the note is “puncta”, the “raw data 1” value is reported as 21904.2 and the “raw data 2” value is 1269.24.

On to `O=C1c2cccc(O)c2C(=O)c2c(O)cccc21` [Danthron], for which the “Z repl 1” value is -1.052 and the “Z Repl 2” value is on record as -0.634. For the same compound, the “av Z” value under setting [2] is reported as -0.843. This compound yielded an av puncta (average of raw data 1 and 2) of 9858.03. Under “puncta”, the “raw data 1” value was found to be 13720.6 and the “raw data 2” value worked out at 5995.43.

For the compound `COc1cc2cc(Oc3ccc4ccc(=O)oc4c3)c(=O)oc2cc1O` [Daphnoretin], the “Z repl 1” value is -0.257 and the “Z Repl 2” value is -0.157. Under setting [2], the “av Z” value is -0.207. This compound registered an av puncta under setting [3] of 17173.7. Besides, under “raw puncta”, the “raw data 1” value is reported as 23258.6 and the “raw data 2” value was determined as 11088.8.

In the case of `C/C=C/c1cc(OC)c2c(c1)C(C)C(c1ccc(O)c(OC)c1)O2` (stereo not drawn) [Dehydrodiisoeugenol], the “Z repl 1” value was determined as 0.835 and the “Z Repl 2” value worked out at 0.419. Further, under setting [1], the “av Z” value turned out to be 0.627. For the same compound, the av puncta (average of raw data 1 and 2) is listed as 26809.6. Moreover, where the note is “puncta”, the “raw data 1” value turned out to be 36377.1 and the “raw data 2” value is 17242.2.

On to `OC[C@H]1O[C@@H](Oc2cc3c(O)cc(O)cc3[o+]c2-c2cc(O)c(O)c(O)c2)[C@H](O)[C@@H](O)[C@@H]1O.[Cl-]` [Delphinidin 3-glucoside (chloride)], for which the “Z repl 1” value is listed as -1.229. In addition, the “av Z” value under setting [2] was -1.2. Besides, under “average of raw data 1 and 2”, the av puncta was found to be 5928.77. Under “puncta”, the “raw data 1” value was found to be 11598.4 and the “raw data 2” value turned out to be 259.098.

As for `Oc1cc(O)c2cc(O)c(-c3cc(O)c(O)c(O)c3)[o+]c2c1.[Cl-]` [Delphinidin (chloride)], the “Z Repl 2” value was -0.674. The “av Z” value under setting [2] is given as -1.417. In addition, where the note is “average of raw data 1 and 2”, the av puncta is on record as 2997.99. Besides, for the setting “puncta”, the “raw data 1” value stood at 426.071 and the “raw data 2” value stood at 5569.91.

Take `COc1ccc2cc3[n+](cc2c1OC)CCc1cc(O)c(O)cc1-3` [Demethyleneberberine]: the “Z repl 1” value is reported as -0.088 and the “Z Repl 2” value is on record as -0.204. Under setting [4], the “av Z” value was -0.146. Besides, the av puncta (average of raw data 1 and 2) is 17943.1. For the same compound, for the setting “puncta”, the “raw data 1” value was found to be 25297.3 and the “raw data 2” value is 10588.9.

Consider `Oc1ccc(OC2CCCCO2)cc1` (stereo not drawn) [Deoxyarbutin], for which the “Z repl 1” value stood at 0.557 and the “Z Repl 2” value is on record as -0.129. Also, under setting [1], the “av Z” value is 0.214. Further, where the note is “average of raw data 1 and 2”, the av puncta is on record as 22209.6. For the same compound, for the setting “puncta”, the “raw data 1” value turned out to be 33032.9 and the “raw data 2” value is listed as 11386.3.

For `COc1cc([C@@H]2c3cc4c(cc3C[C@H]3COC(=O)[C@@H]32)OCO4)cc(OC)c1OC` [Deoxypodophyllotoxin], the “Z repl 1” value worked out at 3.44 and the “Z Repl 2” value stood at 3.821. The “av Z” value (average Z score of the two replicates, tau biosensor seeding, MCE Phenols Library screen) came to 3.63. The same compound showed an av puncta (average of raw data 1 and 2) of 60606.3. Further, where the note is “puncta”, the “raw data 1” value amounted to 67641.6 and the “raw data 2” value is given as 53571.1.

With `COc1ccc(/C=C/c2cc(O)cc(O[C@@H]3O[C@H](CO)[C@@H](O)[C@H](O)[C@H]3O)c2)cc1` [Desoxyrhaponticin], the “Z repl 1” value amounted to 0.811 and the “Z Repl 2” value is reported as -0.238. Also, the “av Z” value under setting [1] is reported as 0.286. This compound also yielded an av puncta (average of raw data 1 and 2) of 23150.9. Moreover, under “puncta”, the “raw data 1” value is recorded as 36082.1 and the “raw data 2” value is 10219.6.

Consider `COc1cc(-c2coc3cc4c(c(O)c3c2=O)OCO4)cc(O)c1OC` [Dichotomitin], for which the “Z repl 1” value was determined as 0.855 and the “Z Repl 2” value turned out to be 0.348. For the same compound, the “av Z” value under setting [1] came to 0.602. Under “average of raw data 1 and 2”, this compound yielded an av puncta of 26548.7. Under “puncta”, the “raw data 1” value turned out to be 36614.6 and the “raw data 2” value is reported as 16482.8.

On to `O=C(O)CCc1ccc(O)c(O)c1` [Dihydrocaffeic acid], for which the “AvZ” value was -0.454; the “Z repl 1” value is 0.014; the “Z Repl 2” value was -0.922. Besides, the av puncta under setting [3] worked out at 14716.5. Further, where the note is “raw puncta”, the “raw data 1” value is 26515.6 and the “raw data 2” value worked out at 2917.33.

For `O=C1c2ccc(O)cc2OCC1c1ccc(O)cc1` (stereo not drawn) [Dihydrodaidzein], the “Z repl 1” value is given as -0.987 and the “Z Repl 2” value was -0.442. For the same compound, the “av Z” value under setting [2] is given as -0.715. Besides, the av puncta under setting [3] was 11271.3. In addition, for the setting “puncta”, the “raw data 1” value was 14500 and the “raw data 2” value turned out to be 8042.62.

As for `COc1cc(CC(C)C(C)Cc2ccc(O)c(OC)c2)ccc1O` (stereo not drawn) [Dihydroguaiaretic acid], the “Z repl 1” value is -0.958 and the “Z Repl 2” value is recorded as -0.625. In addition, the “av Z” value under setting [2] is -0.792. This compound also displayed an av puncta (average of raw data 1 and 2) of 10465.9. Moreover, where the note is “puncta”, the “raw data 1” value is given as 14843.2 and the “raw data 2” value was 6088.67.

Take `O=C1c2c(O)cc(O)cc2O[C@H](c2ccc(O)cc2)[C@H]1O` [Dihydrokaempferol]: the “Z repl 1” value is reported as -0.147 and the “Z Repl 2” value is 0.084. Further, under setting [4], the “av Z” value is given as -0.031. The av puncta (average of raw data 1 and 2) is reported as 19127. Also, where the note is “puncta”, the “raw data 1” value was 24585.9 and the “raw data 2” value was 13668.2.

As for `O=C1c2c(O)cc(O)cc2O[C@H](c2cc(O)c(O)c(O)c2)[C@H]1O` [Dihydromyricetin], the “Z repl 1” value is listed as -1.346 and the “Z Repl 2” value was -0.885. Moreover, the “av Z” value under setting [2] is listed as -1.115. For the setting “puncta”, the “raw data 1” value is 10190.2 and the “raw data 2” value is reported as 3319.03.

Take `COc1cc(CCCO)cc(OC)c1O` [Dihydrosinapyl alcohol]: the “AvZ” value is listed as -0.284; the “Z repl 1” value is given as -0.789; the “Z Repl 2” value is 0.221. Also, the av puncta under setting [3] was 16004.7. For the same compound, where the note is “raw puncta”, the “raw data 1” value came to 16882.6 and the “raw data 2” value turned out to be 15126.8.

Take `COc1cc2c(O)c3c(c(-c4ccc5c(c4)OCO5)c2cc1OC)C(=O)OC3` [Diphyllin]: the “Z repl 1” value is on record as -0.334 and the “Z Repl 2” value is -0.918. Moreover, under setting [2], the “av Z” value was -0.626. Under setting [3], this compound showed an av puncta of 12650.9. Further, under “puncta”, the “raw data 1” value is listed as 22335.7 and the “raw data 2” value was 2966.05.

Consider `COc1cc(O)ccc1/C=C/C(=O)c1ccc(O)cc1` [Echinatin], for which the “Z repl 1” value is listed as -1.092 and the “Z Repl 2” value was -0.742. Further, the “av Z” value under setting [2] was -0.917. For the same compound, the av puncta (average of raw data 1 and 2) came out at 9040.03. Under “puncta”, the “raw data 1” value came to 13242.9 and the “raw data 2” value turned out to be 4837.17.
